Measured values taken from US12338221B2, “Process for preparation of sulfentrazone with tank-mix compatibility” (UPL LTD, priority 2021, dated 2025).

Experiment: Tank mix compatibility test with other pesticide active compound
Format: physicochemical
Details: FIG. 2 and FIG. 3
Description: Samples prepared according to Example 6 and Example 7 were tested for compatibility with clomazone EC formulation (UPSTAGE®). The tank mix compatibility was checked as per the dosages mentioned below: [table] Method: Total 250 ml of spray dilution solution was prepared using above mentioned composition wherein 7 ml of each sample 1 and sample 2 were mixed with 10 ml of UPSTAGE® and mixture was diluted with water.

SMILES | Physical incompatibilities when mixed with a clomazone EC formulation
Cc1nn(-c2cc(NS(C)(=O)=O)c(Cl)cc2Cl)c(=O)n1C(F)F [conventionally prepared sulfentrazone, N[2,4-dichloro-5-[4-(difluoromethyl)-4,5-dihydro-3-methyl-5-oxo-1H-1,2,4-triazol-1-yl]phenyl]methanesulfonamide] | moderate to severe physical incompatibilities
Cc1nn(-c2cc(NS(C)(=O)=O)c(Cl)cc2Cl)c(=O)n1C(F)F [sulfentrazone prepared in accordance with the present disclo] [N[2,4-dichloro-5-[4-(difluoromethyl)-4,5-dihydro-3-methyl-5-oxo-1H-1,2,4-triazol-1-yl]phenyl]methanesulfonamide] | did not result in any physical incompatibilities
